# Results as given in patent US8653046B2, “Controlling transgene expression across the skin” (ETH Zurich, priority 2009, dated 2014).
# Columns and labels:
# [1] = target: T1, tetracycline-responsive control system (PSV40-tTA-pA; PhCMV*-1-SAMY-pA) (Escherichia coli, UniProt P04483); experiment: Compatibility test: tetracycline-responsive (TETOFF) SAMY production in CHO-PEACE8 (pSAM200, pBP99); assay type: cell-based; conditions: CHO-PEACE8 transiently transfected with tetracycline-responsive control system; Phl 50 μM, Tet 2 μg/mL; 48 h; 100 = no inducer
# T1 construct: expressed in transfected cells; host or cells: CHO-PEACE8 transiently transfected with pSAM200 and pBP99
# Excerpt: (§1) To evaluate the functional compatibility of PEACE with the established tetracycline— [TETOFF; Gossen M., Bujard H., 1992, Proc Natl Acad Sci USA 89(12):5547-5551] and macrolide— [EOFF; Weber W., et al., 2002, Nat Biotechnol 20(9):901-907] responsive expression circuits CHO-PEACE8 is transiently transfected, transgenic for phloretin-responsive SEAP expression, with either the TETOFF-(pSAM200, PSV40-tTA-pA; pBP99, PhCMV*-1-SAMY-pA) or the EOFF-(PWW35, PSV40-ET1-pA; pBP100, PETR3-SAMY-pA) system set to control the Bacillus stearothermophilus-derived secreted α-amylase (SAMY) in response to tetracycline and erythromycin, respectively. SEAP and SAMY expression are scored 48 h after cultivation of the transfected populations in the presence (50 μM; 2 μg/mL) or absence of the inducer molecules (phloretin, tetracycline, erythromycin).
# TtgA1 (TtgR-VP16) [2] = target: T2, TtgA1 (TtgR-VP16) (Pseudomonas putida, UniProt Q9AIU0); experiment: Compatibility test: phloretin-responsive SEAP production of CHO-PEACE8; assay type: cell-based, Pseudomonas putida DOT-T1E; design: expressed in transfected cells; host or cells: CHO-K1 (transient pMG11 or pMG13); also HEK-293, BHK-21, COS-7, HaCaT, HT-1080, NIH/3T3, primary human fibroblasts and keratinocytes; conditions: Phl 50 μM, 48 h, 100 = no inducer
# Excerpt: as §1
# The stable CHO-PEACE8 cell line, transgenic for phloretin-controlled SEAP expression, is constructed in two steps: (i) CHO-K1 cells are co-transfected with pMG11 (PSV40-TtgA1-pA) and pSV2neo (Clontech, Cat. No. 6172-1) at a ratio of 20:1 and clonal selection results in the cell line CHO-TtgA. (ii) CHO-TtgA is co-transfected with pMG10 (PTtgR1-SEAP-pA) and pPur (Clontech, Cat. No. 6156-1) (ratio of 20:1) and the phloretin-responsive SEAP-producing double-transgenic cell line CHO-PEACE8 is chosen after clonal selection. […] Reversibility of phloretin-mediated SEAP production is assessed by cultivating CHO-PEACE8 (100,000 cells/mL) for 144 h while alternating phloretin concentrations from 0 to 50 μM every 48 h.
# CHO-K1 = experiment: Toxicity of flavonoids: CHO-K1 transiently transfected with pSEAP2-Control, SEAP levels after 48 h; conditions: 0, 25, 50 μM, genistein cytotoxic only at 50 μM
# Experimental: (A) Toxicity of flavonoids. CHO-K1 are transiently transfected with pSEAP2-Control, and cultivated in medium supplemented with different flavonoids (0, 25, 50 μM). SEAP levels are scored after 48 h.
# (§2) CHO-K1 are transiently (co-)transfected with either pMG10 (PTtgR1-SEAP-pA) and pMG11 (PSV40-TtgA1-pA), to score regulation performance, or with pSEAP2-Control (PSV40-SEAP-pA), to assess compound-related cytotoxicity, and then cultivated for 48 h in medium containing different concentrations (0, 25, 50 μM) of specific flavonoid type compounds (berberine, butylparaben, genistein, luteolin, β-naphthol, naringenin, phloretin, phloridzin or quercetin) before SEAP production is profiled (FIG. 5A).
# Wild-type Chinese hamster ovary cells (CHO-K1, ATCC: CCL-61) and their derivatives are cultivated in standard medium: ChoMaster® HTS (Cell Culture Technologies, Gravesano, Switzerland) supplemented with 5% (v/v) fetal calf serum (FCS, PAN Biotech GmbH, Aidenbach, Germany, Cat. No. 3302, Lot No. P251110) and 1% (v/v) penicillin/streptomycin solution (Sigma, St Louis, Mo., USA, Cat. No. P4458). Human embryonic kidney cells (HEK-293, Mitta B., et al., 2002, Nucleic Acids Res 30(21):e113), African green monkey kidney cells (COS-7, ATCC: CRL-1651), baby hamster kidney cells (BHK-21, ATCC: CCL10), human fibrosarcoma cells (HT-1080, ATCC: CCL-121), the human keratinocyte cell line HaCaT (Boukamp P., et al., 1988, J Cell Biol 106(3):761-771) and mouse fibroblasts (NIH/3T3, ATCC: CRL-1658) are cultured in Dulbecco's modified Eagle's medium (DMEM; Invitrogen, Cat. No. 52100-39) supplemented with 10% FCS (v/v) and 1% (v/v) penicillin/streptomycin solution. Primary human foreskin fibroblasts are cultivated in DMEM supplemented with 20% FCS (v/v) and 1% (v/v) penicillin/streptomycin solution and primary human foreskin keratinocytes are cultured in chemically defined serum-free keratinocyte medium (Invitrogen, Cat. No. 10744019). All cell types are cultivated at 37° C. in a 5% CO2-containing humidified atmosphere. For transient transfection of CHO-K1, 1 μg of total plasmid DNA (for co-transfection an equal amount of each plasmid) is transfected into 50,000 cells per well of a 24-well plate according to an optimized calcium phosphate protocol (Greber D., Fussenegger M., 2007, Biotechnol Bioeng 96(5):821-834). Plasmid DNA is diluted to a total volume of 25 μL 0.5 M CaCl2 solution, which is mixed with 25 μL 2×HBS solution (50 mM HEPES, 280 mM NaCl, 1.5 mM Na2HPO4, pH 7.1). After incubation for 15 min at room temperature, the precipitates are immediately added to the well and centrifuged onto the cells (5 min at 1,200×g) to increase transfection efficiency. After 3 h, the cells are treated with 0.5 mL glycerol solution (ChoMaster® HTS medium containing 15% glycerol) for 60 sec. After washing once with phosphate-buffered saline (PBS, Dulbecco's Phosphate-Buffered Saline; Invitrogen, Cat. No. 21600-0069), cells are cultivated in 0.5 mL standard ChoMaster® HTS medium in the presence or absence of different concentrations of phloretin. For transfection of BHK-21, COS-7 and HEK-293, plasmid DNA-Ca2PO4 precipitate is prepared and applied to the cells as described above. HEK-293 and COS-7 cells are washed once with PBS after 3 h incubation with the DNA-Ca2PO4 precipitate and subsequently cultivated in standard DMEM, while BHK-21 cells are incubated overnight with the precipitates and then cultivated in DMEM medium after being washed once with PBS. […]
# TtgA1 (TtgR-VP16) [3] = target: T2, TtgA1 (TtgR-VP16); experiment: PEACE: SEAP expression after transient co-transfection of pMG10 (PTtgR1-SEAP-pA) and pMG11 (PSV40-TtgA1-pA); assay type: cell-based; conditions: CHO-K1, 0, 25, 50 μM, 48 h
# Excerpt: Living in the plant rhizosphere, Pseudomonas putida DOT-T1E has evolved resistance to a variety of plant-derived antimicrobials, which is triggered by phloretin-induced release of TtgR protein from the operator (OTtgR) of its target promoter and subsequent induction of a broadly specific TtgABC efflux pump (Teran W. et al., loc. cit.).
# Three different transactivators are designed, harboring either the VP16 (TtgA1; pMG11, TtgR-VP16) (Triezenberg S. J. et al., loc. cit.), the p65 (TtgA2; pMG18, TtgR-p65) (Urlinger S., et al., 2000, Gene 247(1-2):103-110) or the human E2F4 (TtgA3; pMG19, TtgR-E2F4) (Akagi K., Kanai M., Saya H., Kozu T., Berns A., 2001, Nucleic Acids Res 29(4):e23) transactivation domains. pMG11, pMG18 or pMG19 are co-transfected with pMG10 (PTtgR1-SEAP-pA) into CHO-K1, HEK-293 as well as primary human fibroblasts and keratinocytes, and SEAP expression is profiled after 48 h of cultivation in the presence or absence of 50 μM phloretin.
# as §2
# Wild-type Chinese hamster ovary cells (CHO-K1, ATCC: CCL-61) and their derivatives are cultivated in standard medium: ChoMaster® HTS (Cell Culture Technologies, Gravesano, Switzerland) supplemented with 5% (v/v) fetal calf serum (FCS, PAN Biotech GmbH, Aidenbach, Germany, Cat. No. 3302, Lot No. P251110) and 1% (v/v) penicillin/streptomycin solution (Sigma, St Louis, Mo., USA, Cat. No. P4458). Human embryonic kidney cells (HEK-293, Mitta B., et al., 2002, Nucleic Acids Res 30(21):e113), African green monkey kidney cells (COS-7, ATCC: CRL-1651), baby hamster kidney cells (BHK-21, ATCC: CCL10), human fibrosarcoma cells (HT-1080, ATCC: CCL-121), the human keratinocyte cell line HaCaT (Boukamp P., et al., 1988, J Cell Biol 106(3):761-771) and mouse fibroblasts (NIH/3T3, ATCC: CRL-1658) are cultured in Dulbecco's modified Eagle's medium (DMEM; Invitrogen, Cat. No. 52100-39) supplemented with 10% FCS (v/v) and 1% (v/v) penicillin/streptomycin solution. Primary human foreskin fibroblasts are cultivated in DMEM supplemented with 20% FCS (v/v) and 1% (v/v) penicillin/streptomycin solution and primary human foreskin keratinocytes are cultured in chemically defined serum-free keratinocyte medium (Invitrogen, Cat. No. 10744019). All cell types are cultivated at 37° C. in a 5% CO2-containing humidified atmosphere.
# [4] = tested on: macrolide-responsive control system (ET1, E-VP16; PETR3-SAMY-pA); experiment: Compatibility test: macrolide-responsive (EOFF) SAMY production in CHO-PEACE8 (pWW35, pBP100); assay type: cell-based; conditions: CHO-PEACE8 transiently transfected with macrolide-responsive control system; Phl 50 μM, EM 2 μg/mL; 48 h; 100 = no inducer
# Excerpt: as §1
# T2 sequence (Q9AIU0 whole entry, added parts left off): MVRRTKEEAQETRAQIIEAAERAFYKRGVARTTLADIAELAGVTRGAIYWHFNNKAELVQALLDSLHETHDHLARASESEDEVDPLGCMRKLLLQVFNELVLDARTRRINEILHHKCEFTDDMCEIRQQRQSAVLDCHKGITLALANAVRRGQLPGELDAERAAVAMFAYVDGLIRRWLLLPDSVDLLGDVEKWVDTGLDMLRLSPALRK
# T1 sequence (P04483 whole entry, added parts left off): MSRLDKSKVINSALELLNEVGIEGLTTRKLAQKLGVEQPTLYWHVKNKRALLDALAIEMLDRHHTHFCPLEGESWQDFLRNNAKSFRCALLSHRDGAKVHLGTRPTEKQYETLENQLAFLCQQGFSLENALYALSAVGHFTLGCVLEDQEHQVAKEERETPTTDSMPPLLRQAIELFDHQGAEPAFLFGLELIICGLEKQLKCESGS
Structure (SMILES),compound-related cytotoxicity / cell viability (CHO-K1),PEACE regulation performance (SEAP production) (TtgA1 (TtgR-VP16) [3]),also measured
"CN(C)[C@@H]1C(O)=C(C(N)=O)C(=O)[C@@]2(O)C(O)=C3C(=O)c4c(O)cccc4[C@@](C)(O)[C@H]3C[C@@H]12 [Tet, tetracycline]",–,–,"Relative SAMY Production (%) [1]: 3.0 ± 0.4%; Relative SEAP Production (%) (TtgA1 (TtgR-VP16) [2]; CHO-PEACE8 transiently transfected with tetracycline-responsive control system, Tet 2 μg/mL): 93.2 ± 3.8%"
O=C1C[C@@H](c2ccc(O)cc2)Oc2cc(O)cc(O)c21 [naringenin],cytotoxic,–,–
"CCCCOC(=O)c1ccc(O)cc1 [butylparaben, butyl 4-hydroxybenzoate]",do not reduce cell viability,able to regulate but not fully repress SEAP production,–
COc1ccc2cc3[n+](cc2c1OC)CCc1cc2c(cc1-3)OCO2 [berberine],do not reduce cell viability,fails to control PEACE,–
O=c1c(-c2ccc(O)cc2)coc2cc(O)cc(O)c12 [genistein],cytotoxic,–,–
"CC[C@H]1OC(=O)[C@H](C)[C@@H](O[C@H]2C[C@@](C)(OC)[C@@H](O)[C@H](C)O2)[C@H](C)[C@@H](O[C@@H]2O[C@H](C)C[C@H](N(C)C)[C@H]2O)[C@](C)(O)C[C@@H](C)C(=O)[C@H](C)[C@@H](O)[C@]1(C)O [EM, erythromycin]",–,–,"Relative SAMY Production (%) [4]: 1.5 ± 1.8%; Relative SEAP Production (%) (TtgA1 (TtgR-VP16) [2]; CHO-PEACE8 transiently transfected with macrolide-responsive control system, EM 2 μg/mL): 102.7 ± 5.3%"
